Results from US9301999B2 (priority 2009, dated 2016).
Where “and” joins values, the source holds several entries; their conditions need not be identical. Equal values may be shown once. Where no end group is shown, it is not given here.

Key:
MC/9 mast cells = assay type: cell-based, murine; set-up: MCD10: concentration of peptide necessary to induce degranulation of 10% of mast cells: unit not given here; conditions: for EC50: read-out: MCD50: concentration of peptide necessary to induce degranulation of 50% of mast cells
anti-PA IgG = test system: anti-PA IgG; set-up: species or system Female C3H/HeN mice; conditions: mouse, in vivo
anti-rPA IgG [1] = test system: anti-rPA IgG; set-up: species or system female C3H/HeN mice; conditions: mouse, in vivo
anti-WNV IgG = assay type: in vivo, Female BALB/c mice; conditions: nasal, days 0, 7 and 21, WNV antigen 1 μg + 0.25 or 1.25 nmoles peptide; for Anti-WNV IgG titers in sera on day 28, versus antigen alone: ANOVA p<0.05; for anti-WNV IgG titers, difference versus mice that received MP7: serum day 28
anti-rPA IgG [2] = test system: anti-rPA IgG; set-up: species or system female C3H mice; conditions: mouse, in vivo
anti-rPA serum IgG = test system: anti-rPA serum IgG; set-up: species or system C3H/HeN female mice; conditions: mouse, in vivo

Substance	MCD10: concentration of peptide necessary to induce degranulation of 10% of mast cells (MC/9 mast cells)	% Mast Cell Degranulation (MC/9 mast cells)	other results
INLKALAALAKAIL [MP-12A, I N L K A L A A L A K A I L]	8.88		EC50 (MC/9 mast cells): 25.3 µM
KLKLLLLLKLK-NH2			adjuvant activity as determined by serum anti-PA IgG endpoint titers (anti-PA IgG): did not provide adjuvant activity
INLKALAALAKKIL [Mastoparan-OH]			adjuvant activity as determined by serum anti-PA IgG endpoint titers (anti-PA IgG): provided adjuvant activity; serum anti-rPA IgG titer versus mice immunized with rPA alone (anti-rPA IgG [1]): not significantly different
I N L K A L A A L A K L I L [MP-12L-OH]		21.36%	
I N L K A L A A L A K K C L (INLKALAALAKKCL) [MP-13C]	17.27		
INLKALAALAKWIL [MP-12W, I N L K A L A A L A K W I L]	1.47		Anti-WNV IgG titers in sera on day 28, versus antigen alone (anti-WNV IgG): significantly greater; anti-WNV IgG titers, difference versus mice that received MP7 (anti-WNV IgG): no significant difference; EC50 (MC/9 mast cells): 4.71 µM
INLKALAALAKFIL [MP-12F, I N L K A L A A L A K F I L]	4.39		Anti-WNV IgG titers in sera on day 28, versus antigen alone (anti-WNV IgG): significantly greater; anti-WNV IgG titers, difference versus mice that received MP7 (anti-WNV IgG): no significant difference; EC50 (MC/9 mast cells): 9.22 µM
I N L K A L A A L A K W I L [MP-12W-NH2]		79.87% and 85.74% and 80.05%	
WQWRWWWWWWRWWW-NH2 [Duke Mast I]			Tukey's Multiple Comparison Test versus CT, Significant? P < 0.05? (anti-rPA IgG [2]): No; Tukey's Multiple Comparison Test versus rPA, Significant? P < 0.05? (anti-rPA IgG [2]): Yes; adjuvant activity: serum anti-rPA IgG titers compared to rPA alone (anti-rPA IgG [2]): statistically significant adjuvant activity; % MC/9 Degranulation (MC/9 mast cells): 30.50%
I N L K A L A A L A K H I L (INLKALAALAKHIL) [MP-12H]	23.86		
INLKALAALAKVIL [MP-12V, I N L K A L A A L A K V I L]	14.87		EC50 (MC/9 mast cells): 41.2 µM
I N L K A L A A L A K I I L [MP-12I-Ac-NH2]		87.97% and 67.63% and 46.09%	
I N L K A L A A L A K F I L [MP-12F-OH]		38.07%	
I N L K A L A A L A K F I L [MP-12F-NH2]		95.24% and 87.57% and 70.01%	
I N L K A L A A L A K K L L (INLKALAALAKKLL) [MP-13L]	22.46		
KLKLLLLLKLK-OH			adjuvant activity as determined by serum anti-PA IgG endpoint titers (anti-PA IgG): did not provide adjuvant activity
I N L K A W A A L A K K I L (INLKAWAALAKKIL) [MP-6W]	24.99		
INLKALAALAKCIL [MP-12C, I N L K A L A A L A K C I L]	5.33		EC50 (MC/9 mast cells): 23.8 µM
WQWRWWWWWWRRWW-NH2 [Duke Mast C]			Tukey's Multiple Comparison Test versus CT, Significant? P < 0.05? (anti-rPA IgG [2]): No; Tukey's Multiple Comparison Test versus Duke Mast F NH2, Significant? P < 0.05? (anti-rPA IgG [2]): No; Tukey's Multiple Comparison Test versus Duke Mast I NH2, Significant? P < 0.05? (anti-rPA IgG [2]): No; Tukey's Multiple Comparison Test versus rPA, Significant? P < 0.05? (anti-rPA IgG [2]): Yes; adjuvant activity: serum anti-rPA IgG titers compared to rPA alone (anti-rPA IgG [2]): statistically significant adjuvant activity; % MC/9 Degranulation (MC/9 mast cells): 47.90%
I N L K A L A A L A K F I L [MP-12F-Ac]		2.75%	
I N L K A L A A L A K A L L [MP7-Ac-NH2]		54.46% and 47.52% and 29.89%	
I N L K A L A A L A K W I L [MP-12W-Ac]		38.76%	
I N L K A L A A L A K E I L (INLKALAALAKEIL) [MP-12E]	40.32		
INLKALAALAKMIL [MP-12M, I N L K A L A A L A K M I L]	2.96		EC50 (MC/9 mast cells): 11.3 µM
I N L K A L A A L A K A L L [MP7-Ac]		0.31%	
INLKALAALAKLIL [MP-12L, I N L K A L A A L A K L I L]	2.30		Anti-WNV IgG titers in sera on day 28, versus antigen alone (anti-WNV IgG): significantly greater; anti-WNV IgG titers, difference versus mice that received MP7 (anti-WNV IgG): no significant difference; EC50 (MC/9 mast cells): 5.19 µM

Substance	MCD10: concentration of peptide necessary to induce degranulation of 10% of mast cells (MC/9 mast cells)	% Mast Cell Degranulation (MC/9 mast cells)	other results
I N L K A F A A L A K K I L (INLKAFAALAKKIL) [MP-6F]	58.40		
I N L K A L A A L A K S I L (INLKALAALAKSIL) [MP-12S]	22.50		
I N L K A L A A L A K G I L (INLKALAALAKGIL) [MP-12G]	68.76		
I N L K A L A A L A K I I L [MP-12I-OH]		0%	
I N L K A L A A L A K Q I L (INLKALAALAKQIL) [MP-12Q]	18.73		
INLKALAALAKALLINLKALAALAKALL-NH2 [MP7-2X]			% MC/9 Degranulation (MC/9 mast cells): 33.60% and 47.80%
I N L K A L A A L A K I I L [MP-12I-Ac]		0%	
INLKALAALAKALLGGGINLKALAALAKALL-NH2 [MP7-2XB]			% MC/9 Degranulation (MC/9 mast cells): 40.49% and 56.90%
I N L K A L A A L A K F I L [MP-12F-Ac-NH2]		87.65% and 83.36% and 67.41%	
I N L K A L A A L A K L I L [MP-12L-Ac-NH2]		80.35% and 76.49% and 58.57%	
I N L K A L A A L A K L I L [MP-12L-NH2]		83.36% and 67.37% and 51.29%	
I N L K A L A A L A K K W L (INLKALAALAKKWL) [MP-13W]	22.76		
I N L K A L A A L A K L I L [MP-12L-Ac]		1.07%	
INLKALAALAKYIL [MP-12Y, I N L K A L A A L A K Y I L]	4.09		EC50 (MC/9 mast cells): 11.1 µM
I N L K A I A A L A K K I L (INLKAIAALAKKIL) [MP-6I]	61.14		
I N L K A L A A L A K I I L [MP-12I-NH2]		81.66% and 70.13% and 49.9%	
WRWRWWWWWWRRWW-NH2 [Duke Mast F]			Tukey's Multiple Comparison Test versus CT, Significant? P < 0.05? (anti-rPA IgG [2]): No; Tukey's Multiple Comparison Test versus Duke Mast I NH2, Significant? P < 0.05? (anti-rPA IgG [2]): No; Tukey's Multiple Comparison Test versus rPA, Significant? P < 0.05? (anti-rPA IgG [2]): Yes; adjuvant activity: serum anti-rPA IgG titers compared to rPA alone (anti-rPA IgG [2]): statistically significant adjuvant activity; % MC/9 Degranulation (MC/9 mast cells): 27.80% and 40.07%
INLKALAALAKALLSGGRGGINLKALAALAKALL-NH2 [MP7-2XA]			% MC/9 Degranulation (MC/9 mast cells): 50.20% and 78.40%
I N L K A L A A L A K K F L (INLKALAALAKKFL) [MP-13F]	24.37		
I N L K A L A A L A K A L L [MP7-OH]		2.87%	serum anti-rPA IgG titers, difference between the -OH and -NH2 forms (anti-rPA IgG [1]): no significant difference
I N L K A L A A L A K R I L (INLKALAALAKRIL) [MP-12R]	23.29		
I N L K A L A A L A K K M L (INLKALAALAKKML) [MP-13M]	64.54		
I N L K A L A A L A K W I L [MP-12W-OH]		23.83%	
I N L K A L A A L A K N I L (INLKALAALAKNIL) [MP-12N]	31.86		
INLKALAALAKIIL [MP-12I, I N L K A L A A L A K I I L]	2.32		Anti-WNV IgG titers in sera on day 28, versus antigen alone (anti-WNV IgG): significantly greater; anti-WNV IgG titers, difference versus mice that received MP7 (anti-WNV IgG): no significant difference; EC50 (MC/9 mast cells): 12 µM
cholera toxin [CT, reference compound]			Tukey's Multiple Comparison Test versus rPA, Significant? P < 0.05? (anti-rPA IgG [2]): Yes; serum anti-PA IgG geometric means titers (GMT), adjuvant activity (anti-rPA serum IgG): did not significantly augment
